In one test the target is T1, human CB1 receptor (Homo sapiens, UniProt P21554).
T1 construct: expressed in transfected cells; host or cells: SK-N-MC cells, stably transfected with pcDNA3 CB-1 (human); semi-purified membrane pellet
Put plainly: biochemical. The class given is binding. The procedure: (§1) Binding Assay for CB1 or CB2 Agonists or Inverse Agonists
(§2) The human CB1 and CB2 receptors were stably expressed in SK-N-MC cells transfected with pcDNA3 CB-1 (human) or pcDNA3 CB-2 (human). The cells were grown in T-180 cell culture flasks under standard cell culture conditions at 37° C. in a 5% CO2 atmosphere. The cells were harvested by trysinization and homogenized in a homogenization buffer (10 mM Tris, 0.2 mM MgCl2, 5 mM KCl, with protease inhibitors aprotinin, leupeptin, pepstatin A and bacitracin) and centrifuged (2000 g). The supernatant was then centrifuged in 2M sucrose (31,300 g) to produce a semi-purified membrane pellet. The pellet was resuspended in homogenization and store at −80° C.
On the day of the assay, the pellet was thawed on ice and diluted in assay buffer (50 mM Tris-HCl, 5 mM MgCl2, 2.5 mM EDTA, 0.5 mg/mL fatty acid free bovine serum albumin, pH 7.5). […] The plate was covered and incubated for 90 minutes at 30° C. The contents were then aspirated onto a Packard […] GF/C filter bottom plate prewet with 0.5% polyethyleneimine. The wells of the polypropylene plate were rinsed and aspirated seven times with a 0.9% saline-0.5% TWEEN 20 solution. The […] plate was dried, a scintillation cocktail was added to each well and the counts representing binding were quantitated in a TOPCOUNT scintillation counter.
(§3) The IC50 binding values for compounds tested were calculated by linear regression and were obtained from studies in which varying compound concentrations were used.

The next test deals with human CB2 receptor (Homo sapiens, UniProt P34972). The experiment in a line: Binding assay, cannabinoid CB2 receptor ([3H]-CP-55,940 displacement). To be noted: SK-N-MC cell membranes, radioligand CP-55,940 0.2 nM. On the procedure:
as §1, §2
On the day of the assay, the pellet was thawed on ice and diluted in assay buffer (50 mM Tris-HCl, 5 mM MgCl2, 2.5 mM EDTA, 0.5 mg/mL fatty acid free bovine serum albumin, pH 7.5). The diluted membrane was added with buffer, test compound or standard and the radioligand [H]^3+-CP-55,940_(0.2 nM) to the wells of a 96-well polypropylene plate. Non-specific binding was measured in wells containing 10 uM WIN 55,212. The plate was covered and incubated for 90 minutes at 30° C. The contents were then aspirated onto a Packard UNIFILTER GF/C filter bottom plate prewet with 0.5% polyethyleneimine. The wells of the polypropylene plate were rinsed and aspirated seven times with a 0.9% saline-0.5% TWEEN 20 solution. The UNIFILTER plate was dried, a scintillation cocktail was added to each well and the counts representing binding were quantitated in a TOPCOUNT scintillation counter.
as §3

Setting [1] is: Cannabinoid CB2 Receptor Binding IC50, human CB2 receptor.
Setting [2] is: human CB2 receptor, read-out: Cannabinoid CB2 Receptor Binding IC50.

Structures are written as SMILES. Read-outs that look alike come from different tables or passages of the source.

T1 sequence (P21554 whole entry): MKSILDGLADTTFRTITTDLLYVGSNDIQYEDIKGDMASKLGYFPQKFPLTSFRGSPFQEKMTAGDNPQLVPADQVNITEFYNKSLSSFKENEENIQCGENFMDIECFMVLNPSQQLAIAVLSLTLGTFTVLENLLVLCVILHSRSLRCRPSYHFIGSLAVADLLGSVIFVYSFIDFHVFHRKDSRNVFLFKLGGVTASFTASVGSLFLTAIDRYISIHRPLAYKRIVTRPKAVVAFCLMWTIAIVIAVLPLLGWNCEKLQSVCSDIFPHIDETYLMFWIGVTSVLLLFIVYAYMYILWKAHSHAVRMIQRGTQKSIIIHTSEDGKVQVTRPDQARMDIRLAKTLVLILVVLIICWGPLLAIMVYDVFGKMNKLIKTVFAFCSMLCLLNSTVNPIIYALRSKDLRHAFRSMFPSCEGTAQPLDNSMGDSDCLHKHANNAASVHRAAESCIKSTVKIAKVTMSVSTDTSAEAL
Chain of human CB2 receptor (P34972 whole entry): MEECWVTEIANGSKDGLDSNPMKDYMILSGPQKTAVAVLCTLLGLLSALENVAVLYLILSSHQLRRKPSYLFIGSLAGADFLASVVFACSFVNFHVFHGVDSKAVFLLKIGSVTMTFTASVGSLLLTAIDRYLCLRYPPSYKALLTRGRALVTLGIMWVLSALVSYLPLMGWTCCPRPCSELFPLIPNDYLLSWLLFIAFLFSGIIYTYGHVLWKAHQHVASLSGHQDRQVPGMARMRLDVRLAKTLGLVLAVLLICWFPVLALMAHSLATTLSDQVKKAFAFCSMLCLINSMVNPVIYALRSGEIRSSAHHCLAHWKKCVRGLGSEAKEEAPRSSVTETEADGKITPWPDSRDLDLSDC

For `CC12CCC(C1)C(C)(C)C2NC(=O)CCc1nn(C2CCCCC2)c2c1CCCC2` (centres unmarked) [Cpd 50, 3-(1-cyclohexyl-4,5,6,7-tetrahydro-1H-indazol-3-yl)-N-(1,3,3-trimethyl-bicyclo[2.2.1]hept-2-yl)-propionamide], the values for the IC50 at human CB1 receptor and at human CB2 receptor (setting [1]) were 255 nM and 13 nM, respectively.

Regarding `O=C(N[C@H]1CCCC[C@H]1CO)c1nn(C2CCCCC2)c2c1CCCC2Cl` (stereo partly drawn) [Cpd 60, 7-chloro-1-cyclohexyl-4,5,6,7-tetrahydro-1H-indazole-3-carboxylic acid [(1S,2R)-2-hydroxymethyl-cyclohexyl]-amide], the IC50 – broadly, the concentration needed to halve the response being measured – on human CB1 receptor worked out at 5230 nM; on human CB2 receptor (setting [1]), 515 nM.

Regarding `CC(C)(Cc1nn(C2CCCCC2)c2c1CCCC2)C(=O)NC1C2CC3CC(C2)CC1C3` (centres unmarked) [Cpd 66, N-adamantan-2-yl-3-(1-cyclohexyl-4,5,6,7-tetrahydro-1H-indazol-3-yl)-2,2-dimethyl-propionamide], the IC50 against human CB1 receptor amounted to 3590 nM; at human CB2 receptor (setting [1]), 1400 nM.

For the compound `CC(C)(C)OC(=O)NC1CCc2c(c(C(=O)NC3C4(C)CCC(C4)C3(C)C)nn2C2CCCCC2)C1` (centres unmarked) [Cpd 86, [1-cyclohexyl-3-(1,3,3-trimethyl-bicyclo[2.2.1]hept-2-ylcarbamoyl)-4,5,6,7-tetrahydro-1H-indazol-5-yl]-carbamic acid tert-butyl ester], the IC50 at human CB2 receptor (setting [1]) was found to be 275 nM.

On to `CN(C)C(=O)NC1CCc2c(c(C(=O)NC3C4CC5CC(C4)CC3C5)nn2C2CCCCC2)C1` (centres unmarked) [Cpd 89, 1-cyclohexyl-5-(3,3-dimethyl-ureido)-4,5,6,7-tetrahydro-1H-indazole-3-carboxylic acid adamantan-2-ylamide], for which the IC50 stood at 3700 nM on human CB1 receptor and 1.4 nM on human CB2 receptor (setting [1]).

For the compound `CC12CCC(C1)C(C)(C)C2NC(=O)c1nn(C2CCCCC2)c2c1CC(N)CC2` (centres unmarked) [Cpd 92, 5-amino-1-cyclohexyl-4,5,6,7-tetrahydro-1H-indazole-3-carboxylic acid (1,3,3-trimethyl-bicyclo[2.2.1]hept-2-yl)-amide], the half-maximal inhibitory concentration (IC50) is 1600 nM against human CB1 receptor and 90 nM on human CB2 receptor (setting [1]).

As for `CC12CCC(C1)C(C)(C)C2NC(=O)c1nn(C2CCCCC2)c2c1CC(O)CC2` (centres unmarked) [Cpd 93, 1-cyclohexyl-5-hydroxy-4,5,6,7-tetrahydro-1H-indazole-3-carboxylic acid (1,3,3-trimethyl-bicyclo[2.2.1]hept-2-yl)-amide], the half-maximal inhibitory concentration (IC50) amounted to 1150 nM against human CB1 receptor and 20 nM at human CB2 receptor (setting [1]).

Regarding `CCOC(=O)C1CCc2c(c(C(=O)NC(C)C34CC5CC(CC(C5)C3)C4)nn2C2CCCCC2)C1` (centres unmarked) [Cpd 132], the values for the IC50 against human CB1 receptor and on human CB2 receptor (setting [1]) were 2900 nM and 25.5 nM, respectively.

Turning to `CC(NC(=O)c1nn(C2CCCCC2)c2c1CC(CO)CC2)C12CC3CC(CC(C3)C1)C2` (centres unmarked) [Cpd 143, 1-cyclohexyl-5-hydroxymethyl-4,5,6,7-tetrahydro-1H-indazole-3-carboxylic acid (1-adamantan-1-yl-ethyl)-amide], the IC50 against human CB1 receptor is 2400 nM; on human CB2 receptor (setting [1]) it was 1260 nM.

As for `CCOC(=O)[C@H]1C2CCC(C2)[C@H]1NC(=O)c1nn(C2CCCCC2)c2c1CCCC2O` (stereo partly drawn) [Cpd 164, (2S,3R)-3-[(1-cyclohexyl-7-hydroxy-4,5,6,7-tetrahydro-1H-indazole-3-carbonyl)-amino]-bicyclo[2.2.1]heptane-2-carboxylic acid ethyl ester], the values for the IC50 at human CB1 receptor and at human CB2 receptor (setting [1]) were 6010 nM and 490 nM, respectively.

In the case of `COc1ccc(C(=O)CNC(=O)c2nn(C3CCCCC3)c3c2CCCC3)cc1` [Cpd 176], the IC50 at human CB2 receptor (setting [1]) came to 4000 nM.

`O=C(Nc1nn(C2CCCCC2)c2c1CCCC2)c1ccc2ccccc2c1` [Cpd 178, naphthalene-2-carboxylic acid (1-cyclohexyl-4,5,6,7-tetrahydro-1H-indazol-3-yl)-amide] displayed an IC50 on human CB2 receptor (setting [1]) of 2900 nM.

Turning to `O=C(Nc1nn(C2CCCCC2)c2c1CCCC2)NC12CC3CC(CC(C3)C1)C2` [Cpd 182, 1-adamantan-1-yl-3-(1-cyclohexyl-4,5,6,7-tetrahydro-1H-indazol-3-yl)-urea], at human CB2 receptor (setting [1]), the IC50 stood at 28 nM.

In the case of `CC(C)(C)CC(C)(C)NC(=O)C1CCc2c(c(C(=O)NC3C4CC5CC(C4)CC3C5)nn2C2CCCCC2)C1` (centres unmarked) [Cpd 228, 1-cyclohexyl-4,5,6,7-tetrahydro-1H-indazole-3,5-dicarboxylic acid 3-adamantan-2-ylamide 5-[(1,1,3,3-tetramethyl-butyl)-amide]], the 50% inhibitory concentration (IC50) on human CB2 receptor (setting [1]) came to 250 nM.

On to `C[C@@H](NC(=O)C=Cc1nn(Cc2ccccc2)c2c1CCCC2)c1ccccc1` [Cpd 306, 3-(1-benzyl-4,5,6,7-tetrahydro-1H-indazol-3-yl)-N-[(1R)-1-phenyl-ethyl]-acrylamide], for which the half-inhibitory concentration (IC50) on human CB2 receptor (setting [1]) turned out to be 1800 nM.

With `COC(=O)C(Cc1ccc(OCc2ccccc2)cc1)NC(=O)c1c2c(nn1-c1ccc(OC)cc1)CCCC2` (centres unmarked) [compound 4], the IC50 on human CB2 receptor (setting [2]) stood at 3690 nM.

`COc1ccc(-n2nc3c(c2C(=O)NCCc2ccc(N)cc2)CCCC3)cc1` [compound 8]: at human CB2 receptor (setting [2]), the IC50 was determined as 21200 nM.

Compound `CN1C2CCC1CC(NC(=O)c1nn(C3CCCCC3)c3c1CCCC3)C2` (centres unmarked) [compound 46] displayed a half-inhibitory concentration (IC50) on human CB2 receptor (setting [1]) of 9200 nM.

Turning to `CCOC(=O)c1c(NC(=O)c2nn(C3CCCCC3)c3c2CCCC3)sc2c1CCCCC2` [compound 55], the IC50 at human CB2 receptor (setting [1]) is 7900 nM.

For the compound `CCOC(=O)c1c(NC(=O)c2nn(C3CCCCC3)c3c2CCCC3)sc2c1CCC2` [compound 56], the IC50 on human CB2 receptor (setting [1]) is 20000 nM.

In turn, `CC(C)(C)C1CCc2c(c(C(=O)NC3C4(C)CCC(C4)C3(C)C)nn2-c2ccccc2)C1` (centres unmarked) [compound 111] displayed an IC50 at human CB2 receptor (setting [1]) of 170 nM.

For `CC(C)(C)C1CCc2c(c(C(=O)NC34CC5CC(CC(C5)C3)C4)nn2-c2ccccc2)C1` (centres unmarked) [compound 113], the IC50 at human CB2 receptor (setting [1]) was 770 nM.

With `C[C@@H](NC(=O)c1nn(-c2ccccc2)c2c1CC(C(C)(C)C)CC2)C1CCCCC1` (some centres unmarked) [compound 114], on human CB2 receptor (setting [1]), the 50% inhibitory concentration (IC50) was determined as 530 nM.

Compound `CCOC(=O)C1CCc2c(c(C(=O)NC3C4CC5CC(C4)CC3C5)nn2-c2ccccc2)C1` (centres unmarked) [compound 115] had an IC50 at human CB2 receptor (setting [1]) of 180 nM.

On to `CCOC(=O)C1CCc2c(c(C(=O)NCC34CC5CC(CC(C5)C3)C4)nn2-c2ccccc2)C1` (centres unmarked) [compound 117], for which the IC50 at human CB2 receptor (setting [1]) worked out at 370 nM.

On human CB2 receptor (setting [1]), `CCOC(=O)C1CCc2c(c(C(=O)NC34CC5CC(CC(C5)C3)C4)nn2-c2ccccc2)C1` (centres unmarked) [compound 118] had an IC50 of 400 nM.

On to `CCN(C(=O)c1c2c(nn1-c1ccc(OC)cc1)CCCC2)c1ccccc1OC` [compound 121], for which, on human CB2 receptor (setting [2]), the IC50 was determined as 6270 nM.

With `O=C(NC1C2CCC(C2)C1C(=O)O)c1nn(C2CCCCC2)c2c1CC(C(=O)O)CC2` (centres unmarked) [compound 138], at human CB2 receptor (setting [2]), the half-inhibitory concentration (IC50) was 11800 nM.

As for `CC12CCC(C1)C(C)(C)C2NC(=O)c1nn(-c2ccccn2)c2c1CCCC2` (centres unmarked) [compound 160], the IC50 on human CB2 receptor (setting [1]) stood at 3500 nM.

`CC(NC(=O)c1nn(Cc2ccccc2)c2c1CC(C(=O)O)CC2)C12CC3CC(CC(C3)C1)C2` (centres unmarked) [compound 166] showed an IC50 at human CB2 receptor (setting [1]) of 1700 nM.

As to `CC12CCC(C1)C(C)(C)C2NC(=O)c1nn(C2CCCCC2)c2c1CC(C(N)=O)CC2` (centres unmarked) [compound 170], the half-maximal inhibitory concentration (IC50) on human CB2 receptor (setting [1]) came out at 300 nM.

Regarding `O=C(Nc1nn(C2CCCCC2)c2c1CCCC2)c1ccccc1` [compound 186], the IC50 on human CB2 receptor (setting [2]) is 2290 nM.

The compound `O=C(CNC(=O)c1nn(C2CCCCC2)c2c1CCCC2)c1ccccc1` [compound 188] gave an IC50 at human CB2 receptor (setting [1]) of 5100 nM.

On human CB2 receptor (setting [1]), `CCOC(=O)[C@H]1C2CCC(C2)[C@H]1NC(=O)c1nn(-c2ccc(F)cc2)c2c1CCCC2CC` (some centres unmarked) [compound 191] had a half-maximal inhibitory concentration (IC50) of 190 nM.

`O=C(NC1CN2CCC1CC2)c1nn(C2CCCCC2)c2c1CCCC2` (centres unmarked) [compound 225]: the IC50 on human CB2 receptor (setting [2]) is 650 nM.

`CCOC(=O)C1CCc2c(c(C(=O)NN3CCCCC3)nn2C2CCCCC2)C1` (centres unmarked) [compound 229] came in with an IC50 at human CB2 receptor (setting [1]) of 1300 nM.

On human CB2 receptor (setting [1]), `O=C(NC1C2CC3CC(C2)CC1C3)c1nn(Cc2ccccc2)c2c1CC(C(=O)O)CC2` (centres unmarked) [compound 239] yielded an IC50 of 300 nM.

Turning to `O=C(NCC(O)c1ccc(Br)cc1)c1nn(C2CCCCC2)c2c1CCCC2` (centres unmarked) [compound 240], on human CB2 receptor (setting [1]), the IC50 stood at 1700 nM.

For the compound `C[C@@H](NC(=O)c1nn(C2CCCCC2)c2c1CC(NC(=O)OC(C)(C)C)CC2)C1CCCCC1` (some centres unmarked) [compound 286], the concentration for half-maximal inhibition (IC50) on human CB2 receptor (setting [1]) was 2700 nM.

`O=C(NNC1CCCCCCC1)c1nn(-c2ccc(F)cc2)c2c1CCCC2` [compound 299] had an IC50 at human CB2 receptor (setting [1]) of 5520 nM.

`O=C(Nc1nn(Cc2ccccc2)c2c1CCCC2)NC12CC3CC(CC(C3)C1)C2` [compound 337] showed an IC50 on human CB2 receptor (setting [1]) of 80 nM.

(Values after patent US7452997B2 (priority 2004, dated 2008).)
